Reference: US20070258989A1, “Immunomodulatory pharmaceutical composition and a process for preparation thereof” (Council of Scientific and Industrial Research, priority 2005, published 2007)

Key:
[1] = system: Normal Mice (Mus musculus); assay: Immunostimulant (humorral) activity: haemagglutination (HA) antibody titre after immunisation with rabbit RBC's; type: in vivo; conditions: for Haemagglutination titre: mice fed 50-100 mg/Kg body weight, rabbit RBC antigen day 7 and 14, highest serum dilution showing agglutination
Experimental: A. For Humorral Immune Response • a) Treating the animals with the combination of the three coumarinolignoids at the dose in the range of 50-200 mg/Kg body weight for a period of 1-28 days. • b) Administering the animals with an antigen in the range of 0.01 to 0.3 ml of 5×10^9 RBC's in combination with a pharmaceutically acceptable diluent in a range 20-80% of the antigen used on day 7 for the initiation of antibody production. • c) Administering the same dosage regimen of the antigen and diluent as a booster dose after a period of 3-14 days from the day of primary immunization. • d) Withdrawing the blood using a capillary from the orbital plexus of the animal after a period of 18-25 days from the day of primary immunization. • e) Assessing the antibody production in the serum separated and isolated on 28th day through haemagglutination in a 96 well ‘U’ bottom microtitre plate at a titre ranging from 32-2048.
Normal healthy outbred mice, maintained under standard conditions (22±3° C., 12:12 hr light:dark cycle, pellet diet and soaked Bengal gram), 5 animals in each group were taken for the experiment. The animals were fed with the test compound at the dose rate of 50-100 mg/Kg body weight for a period of 1-28 days. Freshly collected and washed rabbit RBC's was used as an antigen which was used to immunize the animal on day 7 followed by the booster dose on day 14th. Blood was collected from the orbital plexus after 21 days and assessed for haemaggluting (HA) titre. The haemagglutination was carried upon using a serial two-fold dilution of the serum in 96 well ‘U’ bottom microtitre plates. The highest dilution showing visible agglutination was taken as the antibody titre.

[2] = system: Hepatocytes (primary cultured liver cells); assay: SGOT quantification of cell culture supernatant of liver cells damaged with d-galactosamine; type: cell-based; conditions: compounds @ 1 μg/ml, 48-72 hrs incubation
Experimental: Hepatocytes were isolated and cultured into tissue culture plates and damaged with d-galactosamine @ 1 μg/ml and the cells were treated with the compounds under question. After 48-72 hrs of incubation the cell culture supernatant was taken for the estimation of SGOT levels which is indicative of the damage of the primary cultured liver cells.

Structure (SMILES)	humorral immunity HA titre ([1]; 256 in normal control)	Haemagglutination titre ([1]; animal 1)	Haemagglutination titre ([1]; animal 2)	Haemagglutination titre ([1]; animal 3)	Haemagglutination titre ([1]; animal 4)	Haemagglutination titre ([1]; animal 5)	Haemagglutination titre ([1]; animal 7)	SGOT levels of the cell culture supernatant ([2]; d-Galactosamine concentration 0.01)	SGOT levels of the cell culture supernatant ([2]; d-Galactosamine concentration 0.1)	SGOT levels of the cell culture supernatant ([2]; d-Galactosamine concentration 1)	SGOT levels of the cell culture supernatant ([2]; d-Galactosamine concentration 10)
O=P1(N(CCCl)CCCl)NCCCO1 (centres unmarked) [Ledoxan, Cyclophosphamide]	0	0	0	0	0	0	0				
N[C@H]1C(O)O[C@H](CO)[C@H](O)[C@@H]1O (stereo partly drawn) [d-galactosamine]								286	325	420	455
